Where two headings read alike, the source gives them in different places. Where a SMILES comes first, the peptide text is derived from it.

The subject of series [1] is plasma renin. Kind of series: Plasma renin level (angiotensin I formed) after infusion. Particulars: mice; RXP 407 0.1, 1, 10 mg/kg; Lisinopril 10 mg/kg. The class given is in vivo. On the procedure: In this example, the effect of RXP 407 on the levels of renin, another enzyme involved in arterial pressure regulation, is determined. Inhibition of ACE with a conventional inhibitor of said enzyme stops the hydrolysis of angiotensin I into angiotensin II. Angiotensin is indeed one of the physiological substrates of ACE. The decrease in the angiotensin II level in plasma by a retrocontrol mechanism, increases the plasma level of renin, an enzyme directly involved in the production of angiotensin I, from angiotensinogen.
In this way, the inhibition of ACE may be monitored indirectly by the plasma renin level.
This level may be evaluated by the capacity of renin in plasma samples to hydrolyse excess angiotensinogen present in mouse plasma. The formation of angiotensin I is then measured by a radioimmunological assay and the renin level is expressed in ng of angiotensin I formed per ml of plasma and per hour of incubation.

Series [2] has as its system ACE N-terminal domain versus C-terminal domain. Particulars: in vitro; cited from earlier work.
The target in series [3] is T1, N-terminal site of human angiotensin-converting enzyme (Active N-terminal ACE) (Homo sapiens, UniProt P12821, H988K/H992K).
T1 construct: made in house; host or cells: CHO cells
T1 sequence (P12821 30-1306 H988K/H992K): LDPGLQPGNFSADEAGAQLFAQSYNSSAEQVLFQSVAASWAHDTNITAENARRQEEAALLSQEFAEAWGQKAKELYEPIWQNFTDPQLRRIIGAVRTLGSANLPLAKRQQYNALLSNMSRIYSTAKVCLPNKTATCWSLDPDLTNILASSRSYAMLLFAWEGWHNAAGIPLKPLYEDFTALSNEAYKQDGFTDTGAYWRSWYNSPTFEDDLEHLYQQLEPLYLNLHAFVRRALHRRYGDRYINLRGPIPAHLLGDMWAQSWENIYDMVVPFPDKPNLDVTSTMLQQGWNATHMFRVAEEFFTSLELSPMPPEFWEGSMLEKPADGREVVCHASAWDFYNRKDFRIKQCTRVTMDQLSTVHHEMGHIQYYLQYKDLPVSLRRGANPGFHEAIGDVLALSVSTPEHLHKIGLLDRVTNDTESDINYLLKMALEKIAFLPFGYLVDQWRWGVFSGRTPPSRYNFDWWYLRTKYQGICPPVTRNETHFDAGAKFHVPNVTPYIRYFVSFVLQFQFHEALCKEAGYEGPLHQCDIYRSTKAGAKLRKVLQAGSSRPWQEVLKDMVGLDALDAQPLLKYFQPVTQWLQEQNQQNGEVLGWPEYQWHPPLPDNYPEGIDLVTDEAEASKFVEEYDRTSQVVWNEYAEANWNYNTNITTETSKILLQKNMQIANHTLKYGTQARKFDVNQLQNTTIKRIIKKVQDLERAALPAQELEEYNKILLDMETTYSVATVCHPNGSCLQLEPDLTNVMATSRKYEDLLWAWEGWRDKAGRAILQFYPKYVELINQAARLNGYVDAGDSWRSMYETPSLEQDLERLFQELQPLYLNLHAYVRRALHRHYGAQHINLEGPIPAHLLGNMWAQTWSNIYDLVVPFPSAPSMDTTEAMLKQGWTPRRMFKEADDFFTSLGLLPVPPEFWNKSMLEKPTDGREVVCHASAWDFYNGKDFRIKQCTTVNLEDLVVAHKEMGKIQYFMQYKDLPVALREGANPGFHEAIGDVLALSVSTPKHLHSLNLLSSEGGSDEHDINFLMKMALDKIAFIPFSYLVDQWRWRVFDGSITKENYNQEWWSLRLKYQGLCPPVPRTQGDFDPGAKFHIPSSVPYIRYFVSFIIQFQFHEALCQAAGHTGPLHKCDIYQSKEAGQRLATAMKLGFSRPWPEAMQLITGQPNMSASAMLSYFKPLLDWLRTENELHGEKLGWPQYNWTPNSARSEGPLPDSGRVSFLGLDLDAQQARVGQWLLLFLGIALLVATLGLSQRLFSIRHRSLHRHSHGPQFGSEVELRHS
Kind of series: ACE inhibition, quenched fluorescence substrate, N-terminal mutant (C-terminal site inactive). The class given is biochemical. Particulars: for degree of selectivity in favour of the N-terminal site (FIG. 3): N-terminal site at 100 nM, C-terminal site at 5 μM. On the procedure:
(§1) Said mixtures were evaluated at final peptide concentrations of 200 nM in order to determine their ACE inhibitory capacity. To assay ACE, a new quenched fluorescence ACE substrate (Mca-Ala-Ser-Asp-Lys-Dpa) was developed, where Mca represents methoxy coumarine and Dpa 2-(N-dinitrophenyl)aminopropionic acid. Said substrate, which is […], emits an intense fluorescent signal after splitting, between the Asp and Lys residues, by ACE. Using this type of substrate, it is possible to test the inhibitory power of a very large number of compounds in Elisa plates.
(§2) The inhibitory power of the compounds is determined in a conventional competition test based on the breakdown of the quenched fluorescence substrate […]. The breakdown of said substrate by ACE results in the observation of a fluorescent signal at 400 nm, when the sample is excited at 328 nm. The inhibition experiments are conducted in Elisa plate wells, in volumes of 200 μl of buffer: pH 6.8, 50 mM Hepes, 200 mM NaCl, 1 mM ZnCl2, at 25° C., in a Dynatech Fluorolite 1000 type unit. The concentration of the substrate in a typical experiment is 20 μM. For the inhibition experiments, the inhibitor is placed in the presence of the enzyme for 45 min, and the reaction is then initiated by simply adding a very small volume of substrate. The inhibition percentages are calculated from the initial rate variations in the presence of inhibitor. The breakdown kinetics were determined from the record of the fluorescence variations over a 40 min time interval.
(§3) Said mutants were produced from CHO cells.

Series [4] concerns the target T2, C-terminal site of human angiotensin-converting enzyme (Active C-terminal ACE) (Homo sapiens, UniProt P12821, H390K/H394K).
T2 construct: made in house; host or cells: CHO cells
Kind of series: ACE inhibition, quenched fluorescence substrate, C-terminal mutant (N-terminal site inactive). The format is biochemical. Particulars: C-terminal mutant of ACE from CHO cells. On the procedure: as §1, §2, §3

Series [5] has as its target T3, wild human ACE (Homo sapiens, UniProt P12821).
T3 construct: made in house; host or cells: CHO cells
Kind of series: Inhibition of natural ACE as a function of RXP 407 concentration. Particulars: wild human ACE from CHO cells. The format is biochemical. On the procedure:
as §2
In this example, the RXP 407 peptide is used as a natural ACE inhibitor, and the effect of the RXP 407 concentration (in nM) on the ACE inhibition percentage is studied.
The inhibitory power of the compound is determined as in example 1 using wild human ACE produced by CHO cells according to the protocol described in the reference Wei et al, J. Biol. Chem. (1992) 267, 13398-13405 [14].

Series [6] can be described thus: Plasma concentration of tritiated RXP 407 after intravenous bolus. Set-up: species or system rats. Particulars: rat, in vivo, 5 mg/kg. On the procedure: (§4) For this purpose, an RXP 407 comprising three tritium atoms on the N-acetyl group is synthesised to be able to conduct a study on the pharmacokinetics and metabolism of said molecule in rats, by injecting said product at doses of 0.1, 1 and 5 mg/kg by intravenous bolus.
The plasma concentration of RXP 407 as a function of time is then determined.
The results obtained are represented in FIG. 7. Curve 1 corresponds to 0.1 mg/kg, curve 2 to 1 mg/kg and curve 3 to 5 mg/kg. The dotted curve illustrates the Ki of RXP 407 (20 nM).

Series [7] is described as follows: Elimination and metabolism of tritiated RXP 407 in vivo. Set-up: species or system rats. Particulars: rat. On the procedure:
as §4

The test system of series [8] is plasma Ac-Ser-Asp-Lys-Pro (Ac-SDKP). Kind of series: Plasma Ac-SDKP concentration after 30 minute infusion. Particulars: mice, infusion for 30 minutes; RXP 407 0.1, 1, 10 mg/kg; Lisinopril 10 mg/kg. The class given is in vivo. On the procedure:
For this purpose, the mice undergo an infusion of RXP 407 for 30 minutes, at doses of 0.1, 1 and 10 mg/kg and the Ac-Ser-Asp-Lys-Pro-(Ac-SDKP) peptide concentration of the mouse plasma is determined.
The Ac-Ser-Asp-Lys-Pro is determined by a competition immunoenzyme assay using polyclonal antibodies and Ac-SDKP linked to Electrophorus Electricus acetyicholinesterase.
The same plasma Ac-SDKP measurements are made on mice infused with Lisinopril of a 10 mg/kg dose and on non-infused control mice. Lisinopril is an inhibitor used in clinical practice which inhibits both active sites of ACE non-selectively.

Series [9] relates to plasma AcSDKP. Particulars: single dose, healthy volunteer subjects; cited from earlier work.
Where [10] appears, read: N-terminal mutant of ACE from CHO cells, read-out: Ki Active N-terminal ACE.

T2 sequence (P12821 30-1306 H390K/H394K): as the sequence (P12821 30-1306 H988K/H992K) above, with H361K, H365K, K959H, K963H counted along it
T3 sequence (P12821 30-1306): as the sequence (P12821 30-1306 H988K/H992K) above, with K959H, K963H counted along it

With `NCCCC[C@H](N[C@@H](CCc1ccccc1)C(=O)O)C(=O)N1CCC[C@H]1C(=O)O` [Lisinopril, reference compound], the “plasma renin level (FIG. 9)” value in series [1] was “induces an increase in the plasma renin level”.

As to `CC(=O)N[C@@H](CO)C(=O)N[C@@H](CC(=O)O)C(=O)N[C@@H](CCCCN)C(=O)N1CCC[C@H]1C(=O)O` [AcSDKP, N-Acetyl-Seryl-Aspartyl-Lysyl-Proline] (Ac-SDKP-OH), the “hydrolysed more quickly by the N-terminal domain than by the C-terminal domain” value in series [2] was 50 times.

Regarding `CC(CP(=O)(O)C(Cc1ccccc1)NC(=O)[C@@H](N)CC(=O)O)C(=O)N[C@@H](C)C(N)=O` (stereo partly shown) [H2N-Asp-Pheψ (PO2CH2) Ala-AlaNH2], the Ki in [3] (setting [10]) amounted to 0.005 µM; in series [4], 0.8 µM.

Turning to `CC(=O)N[C@@H](CC(=O)O)C(=O)N[C@@H](Cc1ccccc1)P(=O)(O)C[C@@H](C)C(=O)N[C@@H](C)C(N)=O` [RXP 407, Ac-Asp-(R)Phe(PO2CH2)-(S)Ala-Ala-NH2], the Ki in [3] (setting [10]) is 0.012 µM. The Ki in series [3] (value drawn in plasma concentration figure, read-out: Ki of RXP 407 (dotted curve of FIG. 7)) was 0.02 µM. In addition, the “IC50 values with respect to the N and C-terminal sites of natural ACE (inflection points, FIG. 6)” value in series [5] was “compatible with the Ki values measured using the ACE mutants”. The “plasma RXP 407 concentration” value in series [6] worked out at 100 ng/mL. Moreover, in series [7], the Total is on record as 100.09±7 % of injected radioactivity; the eliminated in urine amounted to 87%; the “metabolism (structure of the product in urine and faeces)” value is given as “does not undergo any metabolism”; the “product detected in the airways” value is “No trace of this product is detected”. In series [7] (iv, total radioactivity), the dose excreted came out at 13%. For the same compound, the “plasma level of Ac-SDKP peptide (FIG. 8)” value in series [8] is recorded as “very significant increase”. Further, in series [1], the “plasma renin level (FIG. 9)” value is “does not induce an increase in renin”.

For the compound `CC(=O)N[C@@H](CC(=O)O)C(=O)NC(Cc1ccccc1)P(=O)(O)CC(C)C(=O)N[C@@H](C)C(N)=O` (stereo partly drawn) [Ac-Asp-Pheψ (PO2CH2) Ala-AlaNH2, Ac-Asp-PheΨ(PO2CH2)Ala-Ala-NH2], in series [3] (setting [10]), the Ki worked out at 0.025 µM. In addition, in [3], the “degree of selectivity in favour of the N-terminal site (FIG. 3)” value was “improve the degree of selectivity in favour of the N-terminal site”.

Consider `CC(=O)N[C@@H](CC(=O)O)C(=O)NC(Cc1ccccc1)P(=O)(O)CC(C)C(=O)N[C@@H](C)C(=O)O` (stereo partly shown) [Ac-Asp-Pheψ (PO2CH2) Ala-AlaOH], for which the Ki stood at 0.002 µM in [3] (setting [10]) and 0.007 µM in [4].

For `CC(CP(=O)(O)C(Cc1ccccc1)NC(=O)[C@@H](N)CC(=O)O)C(=O)N[C@@H](C)C(=O)O` (stereo partly shown) [H2N-Asp-Pheψ (PO2CH2) Ala-AlaOH], the results for the Ki in series [3] (setting [10]) and in series [4] were 0.002 µM and 0.06 µM, respectively.

Consider `C[C@H](CS)C(=O)N1CCC[C@H]1C(=O)O` [captopril], for which the “increase of the plasma level of AcSDKP” value in series [9] is reported as 6 to 7 fold.

Take `CC(=O)N[C@@H](C)C(=O)NC(Cc1ccccc1)P(=O)(O)CC(C)C(=O)N[C@@H](C)C(N)=O` (stereo partly shown) [Ac-Ala-Pheψ (PO2CH2) Ala-AlaNH2]: the Ki came out at 0.015 µM in [3] (setting [10]) and 0.2 µM in series [4].

Consider proline, for which the “degree of selectivity in favour of the N-terminal site (FIG. 3)” value in series [3] was “improve the degree of selectivity in favour of the N-terminal site”.

These data come from patent publication US6482797B1, “N-terminal site selective inhibitors of human angiotensin conversion enzyme (ACE)” (Commissariat A l'Energie Atomique, priority 1998, dated 2002).
